Measurements: PMC5035920, “Exploring functional roles of TRPV1 intracellular domains with unstructured peptide-insertion screening” (Scientific Reports, 2016)

Legend:
mTRPV1 (mouse TRPV1) [1] = molecular target: T1, mTRPV1 (mouse TRPV1) (Mus musculus, UniProt Q704Y3, INS430GGG); assay: patch-clamp of transfected HEK293 cells, concentration-response, Hill fit; type: cell-based
T1 construct: full-length mTRPV1 cDNA in pEYFP-N3, C-terminal eYFP fusion, transiently expressed in HEK293 cells; homotetramer

mTRPV1 (mouse TRPV1) [2] = molecular target: T2, mTRPV1 (mouse TRPV1) (Mus musculus, UniProt Q704Y3); assay: as above; type: cell-based
T2 construct: full-length mTRPV1 cDNA in pEYFP-N3, C-terminal eYFP fusion, transiently expressed in HEK293 cells; homotetramer
T2 sequence (Q704Y3 whole entry, the tested form may be a part): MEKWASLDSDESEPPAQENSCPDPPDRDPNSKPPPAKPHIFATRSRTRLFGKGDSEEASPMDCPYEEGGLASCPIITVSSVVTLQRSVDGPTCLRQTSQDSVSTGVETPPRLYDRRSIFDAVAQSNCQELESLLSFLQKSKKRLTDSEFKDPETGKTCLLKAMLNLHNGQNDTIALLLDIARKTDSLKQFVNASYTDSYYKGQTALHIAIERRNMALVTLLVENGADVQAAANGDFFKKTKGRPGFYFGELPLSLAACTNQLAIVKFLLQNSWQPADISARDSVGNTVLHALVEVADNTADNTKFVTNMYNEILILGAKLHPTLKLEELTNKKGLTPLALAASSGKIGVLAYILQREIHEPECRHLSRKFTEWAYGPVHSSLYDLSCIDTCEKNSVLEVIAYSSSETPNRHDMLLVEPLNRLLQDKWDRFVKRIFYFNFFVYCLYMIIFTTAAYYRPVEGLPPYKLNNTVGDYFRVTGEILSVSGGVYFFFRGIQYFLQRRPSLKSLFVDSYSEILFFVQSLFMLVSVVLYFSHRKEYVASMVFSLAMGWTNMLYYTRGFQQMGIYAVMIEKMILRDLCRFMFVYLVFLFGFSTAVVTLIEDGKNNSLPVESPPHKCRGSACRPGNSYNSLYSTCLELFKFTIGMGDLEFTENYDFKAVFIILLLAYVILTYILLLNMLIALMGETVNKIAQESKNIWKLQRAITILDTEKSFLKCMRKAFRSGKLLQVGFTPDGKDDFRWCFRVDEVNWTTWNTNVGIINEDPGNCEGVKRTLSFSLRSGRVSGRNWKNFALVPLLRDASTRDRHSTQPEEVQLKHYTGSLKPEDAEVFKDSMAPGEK

T1 sequence (Q704Y3 with tags, fused parts or gaps INS430GGG): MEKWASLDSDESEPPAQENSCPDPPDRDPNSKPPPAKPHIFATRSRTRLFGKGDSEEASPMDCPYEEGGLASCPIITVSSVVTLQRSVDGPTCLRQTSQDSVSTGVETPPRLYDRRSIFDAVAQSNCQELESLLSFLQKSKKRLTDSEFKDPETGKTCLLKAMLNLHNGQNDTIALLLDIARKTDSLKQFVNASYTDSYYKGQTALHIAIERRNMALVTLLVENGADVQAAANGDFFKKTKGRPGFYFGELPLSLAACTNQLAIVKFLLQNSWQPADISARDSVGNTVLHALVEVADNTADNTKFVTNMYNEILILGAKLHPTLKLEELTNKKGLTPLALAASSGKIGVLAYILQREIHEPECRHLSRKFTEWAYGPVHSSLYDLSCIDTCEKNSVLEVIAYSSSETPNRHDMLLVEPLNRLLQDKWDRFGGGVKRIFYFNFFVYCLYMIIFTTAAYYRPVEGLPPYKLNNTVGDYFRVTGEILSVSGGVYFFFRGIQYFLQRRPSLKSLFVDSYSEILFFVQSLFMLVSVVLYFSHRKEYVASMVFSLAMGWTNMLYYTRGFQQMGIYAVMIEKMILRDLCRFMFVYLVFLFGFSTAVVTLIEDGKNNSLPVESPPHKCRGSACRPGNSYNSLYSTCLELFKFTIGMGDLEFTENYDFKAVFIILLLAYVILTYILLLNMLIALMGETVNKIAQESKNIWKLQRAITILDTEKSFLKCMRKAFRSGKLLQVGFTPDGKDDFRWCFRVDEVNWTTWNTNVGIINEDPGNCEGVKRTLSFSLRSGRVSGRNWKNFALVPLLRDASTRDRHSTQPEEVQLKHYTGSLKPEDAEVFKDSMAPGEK

## COc1cc(CNC(=O)CCCC/C=C/C(C)C)ccc1O [capsaicin]
mTRPV1 (mouse TRPV1) [1]
  EC50: 70 ± 30 nM
mTRPV1 (mouse TRPV1) [2]
  EC50: 150 ± 20 nM
